Read-outs that look alike come from different tables or passages of the source.
How the values were obtained:
Format in all cases: in vivo
[1] = test system: wheat (Triticum aestivum); test: Test B pre-/postemergence plant response; conditions: Triticum aestivum, read-out: Plant response rating, Wheat; for plant injury at 16 g/ha: 16 g ai/ha; for plant injury at 31 g/ha: 31 g ai/ha, 100 complete control; for plant injury at 62 g/ha: 62 g ai/ha; for plant injury at 125 g/ha: 125 g ai/ha
Method in brief: (§1)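 Visual scoring from 0 (no effect) to 100 (complete control) against untreated controls was done 13 to 15 days after greenhouse treatment. Chemicals were formulated in a surfactant-containing non-phytotoxic solvent and applied to soil preemergence or to 1- to 4-leaf (2-18 cm) plants postemergence.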

[2] = test system: green foxtail (Setaria viridis); test: Test B pre-/postemergence plant response; conditions: Setaria viridis, read-out: Plant response rating, Foxtail, Green; for pest or weed control at 16 g/ha: 16 g ai/ha; for pest or weed control at 31 g/ha: 31 g ai/ha, 100 complete control; for pest or weed control at 62 g/ha: 62 g ai/ha; for pest or weed control at 125 g/ha: 125 g ai/ha
Method in brief: as §1

[3] = test system: johnsongrass (Sorghum halepense); test: Test B pre-/postemergence plant response; conditions: Sorghum halepense, read-out: Plant response rating, Johnsongrass; for pest or weed control at 16 g/ha: 16 g ai/ha; for pest or weed control at 31 g/ha: 31 g ai/ha, 100 complete control; for pest or weed control at 62 g/ha: 62 g ai/ha; for pest or weed control at 125 g/ha: 125 g ai/ha
Method in brief: as §1

[4] = test system: wheat (Triticum aestivum); test: Test A pre-/postemergence plant response; conditions: Triticum aestivum, 240 h, read-out: Plant response rating, Wheat; for plant injury at 125 g/ha: 125 g ai/ha; for plant injury at 500 g/ha: 500 g ai/ha
Method in brief: (§2)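 Greenhouse pot test: loam–sand soil; pre- and postemergence sprays applied same day; post plants 2–10 cm, 1–2 leaves. Readout ~10 d, visual % injury vs untreated (0 = none, 100 = complete control).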

[5] = test system: giant foxtail (Setaria faberi); test: Test A pre-/postemergence plant response; conditions: Setaria faberi, 240 h, read-out: Plant response rating, Foxtail, Giant; for pest or weed control at 125 g/ha: 125 g ai/ha; for pest or weed control at 500 g/ha: 500 g ai/ha
Method in brief: as §2

[6] = test system: pigweed (Amaranthus retroflexus); test: Test A pre-/postemergence plant response; conditions: Amaranthus retroflexus, 240 h, read-out: Plant response rating, Pigweed; for pest or weed control at 125 g/ha: 125 g ai/ha; for pest or weed control at 500 g/ha: 500 g ai/ha
Method in brief: as §2

[7] = test system: velvetleaf (Abutilon theophrasti); test: Test A pre-/postemergence plant response
Method in brief: as §2

[8] = test system: barnyardgrass (Echinochloa crus-galli); test: Test A pre-/postemergence plant response; conditions: Echinochloa crus-galli, 240 h, read-out: Plant response rating, Barnyardgrass; for pest or weed control at 125 g/ha: 125 g ai/ha; for pest or weed control at 500 g/ha: 500 g ai/ha
Method in brief: as §2

corn (Zea mays) = test: Test A pre-/postemergence plant response; conditions: Zea mays, 240 h; for Corn plant response rating (crop injury, 0 = no effect, 100 = complete kill) at 125 g/ha: 125 g ai/ha; for Corn plant response rating (crop injury, 0 = no effect, 100 = complete kill) at 500 g/ha: 500 g ai/ha
Method in brief: as §2

[9] = test system: large crabgrass (Digitaria sanguinalis); test: Test A pre-/postemergence plant response; conditions: Digitaria sanguinalis, 240 h, read-out: Plant response rating, Crabgrass, Large; for pest or weed control at 125 g/ha: 125 g ai/ha; for pest or weed control at 500 g/ha: 500 g ai/ha
Method in brief: as §2

[10] = test system: morningglory (Ipomoea coccinea); test: Test A pre-/postemergence plant response
Method in brief: as §2

[11] = post-emergence, Postemergence, scale 0 to 100
[12] = post-emergence, Postemergence, scale 0 to 100, 0 no effect
[13] = pre-emergence, Preemergence, scale 0 to 100 (0 no effect, 100 complete control)
[14] = pre-emergence, Preemergence, 0 to 100 scale, 0 no effect
[15] = pre-emergence, Preemergence, scale 0 to 100
[16] = post-emergence, Postemergence, 0 to 100 scale, 0 no effect, 100 complete control
[17] = pre-emergence, Preemergence, 0 to 100 scale (0 no effect, 100 complete control)
[18] = Postemergence, 125 g ai/ha, 0 to 100 scale, 0 no effect, 100 complete control
[19] = Postemergence, 500 g ai/ha, 0 to 100 scale, 0 no effect, 100 complete control
[20] = Preemergence, 125 g ai/ha, 0 to 100 scale (0 no effect, 100 complete control)
[21] = Preemergence, 500 g ai/ha, 0 to 100 scale (0 no effect, 100 complete control)

Compound: CCc1cc(-c2ccc(C(F)(F)F)cc2)nn1-c1c(O)cnn(C)c1=O [Compound 11, 4-[5-ethyl-3-[4-(trifluoromethyl)phenyl]-1H-pyrazol-1-yl]-5-hydroxy-2-methyl-3(2H)-pyridazinone]
- plant injury at 16 g/ha [1, 11]: 90%
- plant injury at 31 g/ha [1, 12]: 100%
- plant injury at 62 g/ha [1, 11]: 100%
- plant injury at 125 g/ha [1, 11]: 100%
- plant injury at 16 g/ha [1, 13]: 90%
- plant injury at 31 g/ha [1, 14]: 95%
- plant injury at 62 g/ha [1, 15]: 95%
- plant injury at 125 g/ha [1, 15]: 100%
- pest or weed control at 16 g/ha [2, 11]: 85%
- pest or weed control at 31 g/ha [2, 12]: 100%
- pest or weed control at 62 g/ha [2, 11]: 100%
- pest or weed control at 125 g/ha [2, 11]: 100%
- pest or weed control at 16 g/ha [2, 13]: 100%
- pest or weed control at 31 g/ha [2, 14]: 100%
- pest or weed control at 62 g/ha [2, 15]: 100%
- pest or weed control at 125 g/ha [2, 15]: 100%
- pest or weed control at 16 g/ha [3, 11]: 100%
- pest or weed control at 31 g/ha [3, 12]: 100%
- pest or weed control at 62 g/ha [3, 11]: 100%
- pest or weed control at 125 g/ha [3, 11]: 100%
- pest or weed control at 16 g/ha [3, 13]: 90%
- pest or weed control at 31 g/ha [3, 14]: 98%
- pest or weed control at 62 g/ha [3, 15]: 100%
- pest or weed control at 125 g/ha [3, 15]: 100%
- plant injury at 125 g/ha [4, 16]: 80%
- plant injury at 500 g/ha [4, 16]: 100%
- plant injury at 125 g/ha [4, 17]: 100%
- plant injury at 500 g/ha [4, 17]: 100%
- pest or weed control at 125 g/ha [5, 16]: 90%
- pest or weed control at 500 g/ha [5, 16]: 100%
- pest or weed control at 125 g/ha [5, 17]: 100%
- pest or weed control at 500 g/ha [5, 17]: 100%
- pest or weed control at 125 g/ha [6, 16]: 0%
- pest or weed control at 500 g/ha [6, 16]: 0%
- pest or weed control at 125 g/ha [6, 17]: 0%
- pest or weed control at 500 g/ha [6, 17]: 30%
- Plant response rating, Velvetleaf [7, 18]: 0
- Plant response rating, Velvetleaf [7, 19]: 0
- Plant response rating, Velvetleaf [7, 20]: 0
- Plant response rating, Velvetleaf [7, 21]: 0
- pest or weed control at 125 g/ha [8, 16]: 100%
- pest or weed control at 500 g/ha [8, 16]: 100%
- pest or weed control at 125 g/ha [8, 17]: 100%
- pest or weed control at 500 g/ha [8, 17]: 100%
- Corn plant response rating (crop injury, 0 = no effect, 100 = complete kill) at 125 g/ha (corn (Zea mays); [16]): 90%
- Corn plant response rating (crop injury, 0 = no effect, 100 = complete kill) at 500 g/ha (corn (Zea mays); [16]): 90%
- Corn plant response rating (crop injury, 0 = no effect, 100 = complete kill) at 125 g/ha (corn (Zea mays); [17]): 90%
- Corn plant response rating (crop injury, 0 = no effect, 100 = complete kill) at 500 g/ha (corn (Zea mays); [17]): 100%
- pest or weed control at 125 g/ha [9, 16]: 90%
- pest or weed control at 500 g/ha [9, 16]: 100%
- pest or weed control at 125 g/ha [9, 17]: 100%
- pest or weed control at 500 g/ha [9, 17]: 100%
- Plant response rating, Morningglory [10, 18]: 0
- Plant response rating, Morningglory [10, 19]: 0
- Plant response rating, Morningglory [10, 20]: 0
- Plant response rating, Morningglory [10, 21]: 30

— patent US20100267561A1, “HERBICIDAL PYRIDAZINONE DERIVATIVES” (priority 2007, published 2010)
